# Test results published in publication PMC5218480 (PLoS ONE, 2017).
# Tested on: MV-4-11 cells
# Assay: Gene expression microarray analysis (Affymetrix PrimeView) and GSEA
# Type: cell-based, human
# Set-up: RFU PODN (11730768_x_at) / Fold change /veh PODN (11730768_x_at) / RFU LINC00158 (11744669_a_at) / Fold change /veh LINC00158 (11744669_a_at) / RFU DUSP10 (11751237_a_at) / Fold change /veh DUSP10 (11751237_a_at) / RFU ID3 (11757404_x_at) / Fold change /veh ID3 (11757404_x_at) / RFU PLEKHG5 (11737974_s_at) / Fold change /veh PLEKHG5 (11737974_s_at) / RFU LRRC4B (11730491_at) / Fold change /veh LRRC4B (11730491_at) / RFU GIMAP4 (11747438_a_at) / Fold change /veh GIMAP4 (11747438_a_at) / RFU KRT8 (11758183_x_at) / Fold change /veh KRT8 (11758183_x_at) / RFU CNN1 (11734310_a_at) / Fold change /veh CNN1 (11734310_a_at) / RFU VPS37D (11726825_at) / Fold change /veh VPS37D (11726825_at) / RFU C10orf10 (11716522_x_at) / Fold change /veh C10orf10 (11716522_x_at) / RFU KIR2DL2 /// KIR2DL4 /// KIR2DL5A /// KIR2DL5B /// KIR2DS1 /// KIR2DS2 /// KIR2DS3 /// KIR2DS4 /// KIR3DL3 /// KIR3DL3 /// KIR3DS1 (11738374_at) / Fold change /veh KIR2DL2 /// KIR2DL4 /// KIR2DL5A /// KIR2DL5B /// KIR2DS1 /// KIR2DS2 /// KIR2DS3 /// KIR2DS4 /// KIR3DL3 /// KIR3DL3 /// KIR3DS1 (11738374_at) / RFU C1QL1 (11718748_at) / Fold change /veh C1QL1 (11718748_at) / RFU TMPRSS4 (11747572_a_at) / Fold change /veh TMPRSS4 (11747572_a_at) / RFU HAMP (11756126_x_at) / Fold change /veh HAMP (11756126_x_at) / RFU RNFT2 (11725882_a_at) / Fold change /veh RNFT2 (11725882_a_at) / RFU NR4A2 (11747474_a_at) / Fold change /veh NR4A2 (11747474_a_at) / RFU ABCC12 (11746883_a_at) / Fold change /veh ABCC12 (11746883_a_at) / RFU TMEM136 (11760407_x_at) / Fold change /veh TMEM136 (11760407_x_at) / RFU CLDN22 /// WWC2 (11732394_at) / Fold change /veh CLDN22 /// WWC2 (11732394_at) / RFU HLA-DPB1 (11760878_x_at) / Fold change /veh HLA-DPB1 (11760878_x_at) / RFU SPINT1 (11716480_a_at) / Fold change /veh SPINT1 (11716480_a_at) / RFU GAP43 (11754022_s_at) / Fold change /veh GAP43 (11754022_s_at) / RFU A4GNT (11735810_at) / Fold change /veh A4GNT (11735810_at) / RFU PRB3 (11715151_x_at) / Fold change /veh PRB3 (11715151_x_at) / RFU TUBB4B (11761932_at) / Fold change /veh TUBB4B (11761932_at) / RFU CAPN14 (11732068_a_at) / Fold change /veh CAPN14 (11732068_a_at) / RFU TMCC2 (11721928_a_at) / Fold change /veh TMCC2 (11721928_a_at) / RFU IRGQ (11745062_a_at) / Fold change /veh IRGQ (11745062_a_at) / RFU FAM174B (11720279_a_at) / Fold change /veh FAM174B (11720279_a_at) / RFU TMPRSS4 (11748680_a_at) / Fold change /veh TMPRSS4 (11748680_a_at) / RFU FAM212B (11763350_a_at) / Fold change /veh FAM212B (11763350_a_at) / RFU PLEKHG5 (11743358_a_at) / Fold change /veh PLEKHG5 (11743358_a_at) / RFU ZSCAN30 (11745921_a_at) / Fold change /veh ZSCAN30 (11745921_a_at) / RFU CMKLR1 (11741424_a_at) / Fold change /veh CMKLR1 (11741424_a_at) / RFU LOC101060620 /// MAPK8IP1 (11723275_at) / Fold change /veh LOC101060620 /// MAPK8IP1 (11723275_at) / RFU SPTSSB (11747773_x_at) / Fold change /veh SPTSSB (11747773_x_at) / RFU PRSS12 (11739890_at) / Fold change /veh PRSS12 (11739890_at) / RFU BIN1 (11741810_x_at) / Fold change /veh BIN1 (11741810_x_at) / RFU WNT11 (11732464_a_at) / Fold change /veh WNT11 (11732464_a_at) / RFU C10orf10 (11716521_a_at) / Fold change /veh C10orf10 (11716521_a_at) / RFU C5orf56 (11738089_at) / Fold change /veh C5orf56 (11738089_at) / RFU CYB561 (11721691_x_at) / Fold change /veh CYB561 (11721691_x_at) / RFU ANKRD19P (11752326_a_at) / Fold change /veh ANKRD19P (11752326_a_at) / RFU OR2T12 /// OR2T33 /// OR2T8 (11738714_s_at) / Fold change /veh OR2T12 /// OR2T33 /// OR2T8 (11738714_s_at) / RFU VCAN (11748164_a_at) / Fold change /veh VCAN (11748164_a_at) / RFU JSRP1 (11732532_at) / Fold change /veh JSRP1 (11732532_at) / RFU KRTAP10-11 (11738290_x_at) / Fold change /veh KRTAP10-11 (11738290_x_at) / RFU MYO3A (11730013_a_at) / Fold change /veh MYO3A (11730013_a_at) / RFU EBF3 (11725865_a_at) / Fold change /veh EBF3 (11725865_a_at) / RFU CAMK2N1 (11719241_x_at) / Fold change /veh CAMK2N1 (11719241_x_at) / RFU C5orf56 (11738088_a_at) / Fold change /veh C5orf56 (11738088_a_at) / RFU OLFML3 (11715873_a_at) / Fold change /veh OLFML3 (11715873_a_at) / RFU LOC100653217 /// NTM (11731650_a_at) / Fold change /veh LOC100653217 /// NTM (11731650_a_at) / RFU MAPK11 (11762145_a_at) / Fold change /veh MAPK11 (11762145_a_at) / RFU FIZ1 (11724087_x_at) / Fold change /veh FIZ1 (11724087_x_at) / RFU OASL (11726364_x_at) / Fold change /veh OASL (11726364_x_at) / RFU SOX15 (11748057_x_at) / Fold change /veh SOX15 (11748057_x_at) / RFU CD79A (11719716_a_at) / Fold change /veh CD79A (11719716_a_at) / RFU HIST1H1D (11736915_at) / Fold change /veh HIST1H1D (11736915_at) / RFU CASKIN2 (11723855_a_at) / Fold change /veh CASKIN2 (11723855_a_at) / RFU LOC730098 (11760151_x_at) / Fold change /veh LOC730098 (11760151_x_at) / RFU OR4N2 (11742367_at) / Fold change /veh OR4N2 (11742367_at) / RFU PRRT2 (11749266_a_at) / Fold change /veh PRRT2 (11749266_a_at) / RFU SNX32 (11753110_a_at) / Fold change /veh SNX32 (11753110_a_at) / RFU CDHR5 (11726645_a_at) / Fold change /veh CDHR5 (11726645_a_at) / RFU RCAN1 (11760418_a_at) / Fold change /veh RCAN1 (11760418_a_at) / RFU FAM167A (11723789_a_at) / Fold change /veh FAM167A (11723789_a_at) / RFU FAM26E (11764081_at) / Fold change /veh FAM26E (11764081_at) / RFU ISYNA1 (11749810_s_at) / Fold change /veh ISYNA1 (11749810_s_at) / RFU ACY1 (11761880_at) / Fold change /veh ACY1 (11761880_at) / RFU 11764098_at / Fold change /veh 11764098_at / RFU SAMD14 (11745864_x_at) / Fold change /veh SAMD14 (11745864_x_at) / RFU NPB (11741838_a_at) / Fold change /veh NPB (11741838_a_at) / RFU TMPRSS6 (11731388_a_at) / Fold change /veh TMPRSS6 (11731388_a_at) / RFU KRTAP10-2 (11738614_at) / Fold change /veh KRTAP10-2 (11738614_at) / RFU ARHGAP8 /// PRR5-ARHGAP8 (11727945_x_at) / Fold change /veh ARHGAP8 /// PRR5-ARHGAP8 (11727945_x_at) / RFU KRTAP5-7 /// NADSYN1 (11734609_at) / Fold change /veh KRTAP5-7 /// NADSYN1 (11734609_at) / RFU RASL12 (11751679_a_at) / Fold change /veh RASL12 (11751679_a_at) / RFU CDKN2B (11736163_a_at) / Fold change /veh CDKN2B (11736163_a_at) / RFU PRF1 (11729649_at) / Fold change /veh PRF1 (11729649_at) / RFU, ZNF638 /// ZNF638-IT1 / Fold change vs veh, ZNF638 /// ZNF638-IT1 / RFU, PANK3 / Fold change vs veh, PANK3 / RFU, SH3YL1 / Fold change vs veh, SH3YL1 / RFU, ZEB2 / Fold change vs veh, ZEB2 / RFU, NRIP1 / Fold change vs veh, NRIP1 / RFU, PTTG1IP / Fold change vs veh, PTTG1IP / RFU, CAPN2 / Fold change vs veh, CAPN2 / RFU, MED14 / Fold change vs veh, MED14 / RFU, SNORA58 / Fold change vs veh, SNORA58 / RFU, C1orf63 / Fold change vs veh, C1orf63 / RFU, LRRFIP1 / Fold change vs veh, LRRFIP1 / RFU, NDUFAF7 / Fold change vs veh, NDUFAF7 / RFU, SLC12A2 / Fold change vs veh, SLC12A2 / RFU, IBTK / Fold change vs veh, IBTK / RFU, ESF1 / Fold change vs veh, ESF1 / Fold change vs veh, TMEM50B / RFU, TAOK1 / Fold change vs veh, TAOK1 / RFU, ACBD3 / Fold change vs veh, ACBD3 / RFU, TMA16 / Fold change vs veh, TMA16 / RFU, RWDD3 / Fold change vs veh, RWDD3 / RFU, BCAT1 / Fold change vs veh, BCAT1 / RFU, EDEM3 / Fold change vs veh, EDEM3 / RFU, TMEM33 / Fold change vs veh, TMEM33 / RFU, WDR75 / Fold change vs veh, WDR75 / RFU, AHCTF1 / Fold change vs veh, AHCTF1 / RFU, TFRC / Fold change vs veh, TFRC / RFU, ZDHHC17 / Fold change vs veh, ZDHHC17 / RFU, NOM1 / Fold change vs veh, NOM1 / RFU, ARL8B / Fold change vs veh, ARL8B / RFU, ZBTB11 / Fold change vs veh, ZBTB11 / RFU, TAMM41 / Fold change vs veh, TAMM41 / RFU, KIAA1704 /// LOC100996395 / Fold change vs veh, KIAA1704 /// LOC100996395 / RFU, ING1 / Fold change vs veh, ING1 / RFU, TRMT61B / Fold change vs veh, TRMT61B / RFU, FUBP3 / Fold change vs veh, FUBP3 / RFU, TP53 / Fold change vs veh, TP53 / RFU, TNKS2 / Fold change vs veh, TNKS2 / RFU, ZFP14 / Fold change vs veh, ZFP14 / RFU, ACTR2 / Fold change vs veh, ACTR2 / RFU, PPP3R1 / Fold change vs veh, PPP3R1 / RFU, PIK3R1 / Fold change vs veh, PIK3R1 / RFU, HNRNPA1 / Fold change vs veh, HNRNPA1 / RFU, RNF170 / Fold change vs veh, RNF170 / RFU, ZNF28 / Fold change vs veh, ZNF28 / RFU, RNGTT / Fold change vs veh, RNGTT / RFU, OGT / Fold change vs veh, OGT / RFU, BRD1 / Fold change vs veh, BRD1 / RFU, MARS / Fold change vs veh, MARS / RFU, ZNF655 / Fold change vs veh, ZNF655 / RFU, FAHD1 / Fold change vs veh, FAHD1 / RFU, BDP1 / Fold change vs veh, BDP1 / RFU, LRRCC1 / Fold change vs veh, LRRCC1 / RFU, ARID1A / Fold change vs veh, ARID1A / RFU, ZNF146 / Fold change vs veh, ZNF146 / RFU, ZNF330 / Fold change vs veh, ZNF330 / RFU, GPN3 / Fold change vs veh, GPN3 / RFU, C9orf123 / Fold change vs veh, C9orf123 / RFU, N4BP2L2 / Fold change vs veh, N4BP2L2 / RFU, ARFIP1 / Fold change vs veh, ARFIP1 / RFU, FAM179B / Fold change vs veh, FAM179B / RFU, BCL10 / Fold change vs veh, BCL10 / RFU, UHRF1BP1L / Fold change vs veh, UHRF1BP1L / RFU, BET1 / Fold change vs veh, BET1 / RFU, CNOT2 / Fold change vs veh, CNOT2 / RFU, ZNF268 / Fold change vs veh, ZNF268 / Fold change vs veh, ZNF507 / RFU, DGCR2 / Fold change vs veh, DGCR2 / RFU, WDSUB1 / Fold change vs veh, WDSUB1 / Fold change vs veh, HSP90B1 /// MIR3652 / RFU, ADSS / Fold change vs veh, ADSS / RFU, GK / Fold change vs veh, GK / RFU, ZNF148 / Fold change vs veh, ZNF148 / RFU, TAF9 / Fold change vs veh, TAF9 / RFU, SLC1A5 / Fold change vs veh, SLC1A5 / RFU, SLMO2 / Fold change vs veh, SLMO2 / RFU, ABCC4 / Fold change vs veh, ABCC4 / RFU, LOC101060439 /// RAP1B / Fold change vs veh, LOC101060439 /// RAP1B / RFU, RFX7 / Fold change vs veh, RFX7 / RFU, GTPBP10 / Fold change vs veh, GTPBP10 / RFU, CNEP1R1 / Fold change vs veh, CNEP1R1 / RFU, BIVM-ERCC5 /// ERCC5 / Fold change vs veh, BIVM-ERCC5 /// ERCC5 / RFU, ILF3 / Fold change vs veh, ILF3 / RFU 11762660_at / Fold change /veh 11762660_at / RFU VCAN (11757783_s_at) / Fold change /veh VCAN (11757783_s_at) / RFU DDX43 (11728927_at) / Fold change /veh DDX43 (11728927_at) / RFU KRT8 (11758188_x_at) / Fold change /veh KRT8 (11758188_x_at) / RFU NKD1 (11759106_at) / Fold change /veh NKD1 (11759106_at) / RFU SRD5A1 (11742802_a_at) / Fold change /veh SRD5A1 (11742802_a_at) / RFU TPSAB1 /// TPSB2 (11721975_s_at) / Fold change /veh TPSAB1 /// TPSB2 (11721975_s_at) / RFU GSTM3 (11746129_a_at) / Fold change /veh GSTM3 (11746129_a_at) / RFU IL23R (11737362_x_at) / Fold change /veh IL23R (11737362_x_at) / RFU TMEM51 (11727254_a_at) / Fold change /veh TMEM51 (11727254_a_at) / RFU PIWIL2 (11732686_x_at) / Fold change /veh PIWIL2 (11732686_x_at) / RFU ORM1 (11744905_x_at) / Fold change /veh ORM1 (11744905_x_at) / RFU CCDC152 (11743942_at) / Fold change /veh CCDC152 (11743942_at) / RFU ECM1 (11717891_a_at) / Fold change /veh ECM1 (11717891_a_at) / RFU IL23R (11748794_a_at) / Fold change /veh IL23R (11748794_a_at) / RFU TNFAIP8L3 (11732012_x_at) / Fold change /veh TNFAIP8L3 (11732012_x_at) / RFU MBOAT4 (11741988_at) / Fold change /veh MBOAT4 (11741988_at) / RFU 11764193_at / Fold change /veh 11764193_at / RFU TMEM53 (11763286_at) / Fold change /veh TMEM53 (11763286_at) / RFU MAGEB2 (11727129_at) / Fold change /veh MAGEB2 (11727129_at) / RFU TMEM200A (11744735_a_at) / Fold change /veh TMEM200A (11744735_a_at) / RFU CCDC152 (11751479_a_at) / Fold change /veh CCDC152 (11751479_a_at) / RFU FAM211A (11726209_a_at) / Fold change /veh FAM211A (11726209_a_at) / RFU RGS16 (11746705_a_at) / Fold change /veh RGS16 (11746705_a_at) / RFU VCAN (11755009_s_at) / Fold change /veh VCAN (11755009_s_at) / RFU RHOB (11743442_s_at) / Fold change /veh RHOB (11743442_s_at) / RFU RGS16 (11720943_a_at) / Fold change /veh RGS16 (11720943_a_at) / RFU RGS16 (11720944_at) / Fold change /veh RGS16 (11720944_at) / RFU, VPS4B / Fold change vs veh, VPS4B / RFU, CREB1 / Fold change vs veh, CREB1 / RFU, DNAJC13 / Fold change vs veh, DNAJC13 / RFU, GNAQ / Fold change vs veh, GNAQ / RFU, CDK5R1 / Fold change vs veh, CDK5R1 / RFU, ZRANB3 / Fold change vs veh, ZRANB3 / RFU, CUL4A / Fold change vs veh, CUL4A / RFU, CCNY / Fold change vs veh, CCNY / RFU, UFL1 / Fold change vs veh, UFL1 / RFU, COG3 / Fold change vs veh, COG3 / RFU, DIAPH2 / Fold change vs veh, DIAPH2 / RFU, SKA2 / Fold change vs veh, SKA2 / RFU, AFF3 / Fold change vs veh, AFF3 / RFU, LMF1 / Fold change vs veh, LMF1 / RFU, IPO11 / Fold change vs veh, IPO11 / RFU, DFFB / Fold change vs veh, DFFB / RFU, FOXP1 / Fold change vs veh, FOXP1 / RFU, CARD8 / Fold change vs veh, CARD8 / RFU, STRN3 / Fold change vs veh, STRN3 / RFU, ADK / Fold change vs veh, ADK / RFU, RASSF2 / Fold change vs veh, RASSF2 / RFU, WIPF1 / Fold change vs veh, WIPF1 / RFU, LARP1B / Fold change vs veh, LARP1B / RFU, RASA1 / Fold change vs veh, RASA1 / RFU, RB1 / Fold change vs veh, RB1 / RFU, PPFIA1 / Fold change vs veh, PPFIA1 / RFU, MAT2A / Fold change vs veh, MAT2A / RFU, CCT5 / Fold change vs veh, CCT5 / RFU, WDR92 / Fold change vs veh, WDR92 / RFU, CUX1 / Fold change vs veh, CUX1 / RFU, TTC7A / Fold change vs veh, TTC7A / RFU, TMEM135 / Fold change vs veh, TMEM135 / RFU, DEPTOR / Fold change vs veh, DEPTOR / RFU, CPM / Fold change vs veh, CPM / RFU, DNAJB6 / Fold change vs veh, DNAJB6 / RFU, CACNA2D3 / Fold change vs veh, CACNA2D3 / RFU, DTX4 / Fold change vs veh, DTX4 / RFU, TFCP2 / Fold change vs veh, TFCP2 / RFU, GMCL1 /// GMCL1P1 / Fold change vs veh, GMCL1 /// GMCL1P1 / RFU, AEBP2 / Fold change vs veh, AEBP2 / RFU, SNHG1 /// SNORD22 /// SNORD25 /// SNORD26 /// SNORD27 /// SNORD28 /// SNORD29 /// SNORD31 / Fold change vs veh, SNHG1 /// SNORD22 /// SNORD25 /// SNORD26 /// SNORD27 /// SNORD28 /// SNORD29 /// SNORD31 / Fold change (Aza/veh), C12orf56 (ProbeSet 11735607_a_at) / Fold change (ACY-1035/veh), C12orf56 (ProbeSet 11735607_a_at) / Fold change (Aza/veh), FGFR1OP (ProbeSet 11751329_s_at) / Fold change (ACY-1035/veh), FGFR1OP (ProbeSet 11751329_s_at) / Fold change (Aza/veh), VPS36 (ProbeSet 11739960_a_at) / Fold change (ACY-1035/veh), VPS36 (ProbeSet 11739960_a_at) / RFU SYPL1 (11715823_x_at) / Fold change /veh SYPL1 (11715823_x_at) / RFU IGFBP7 (11715501_s_at) / Fold change /veh IGFBP7 (11715501_s_at) / RFU REEP3 (11722064_at) / Fold change /veh REEP3 (11722064_at) / RFU IGLL1 (11728026_x_at) / Fold change /veh IGLL1 (11728026_x_at): dose or concentration left out as unconfirmed
# Conditions: ProbeSet 11717914_a_at; LIST B
smiles,measurement,value
Nc1ccc(-c2cccs2)cc1NC(=O)c1ccc2c(c1)cc(C1CC1)n2CCN1CCOCC1 [ACY-1035],"Fold change vs veh, BIVM-ERCC5 /// ERCC5",1.00
